Reference: the NIST ThermoML archive (doi:10.1016/j.fluid.2007.07.065)
Numbers after ± are expanded uncertainties.

settings: Crystal; Heating/Cooling curves

Row | Normal melting temperature [°C] | SMILES
1 | 16.69 ± 0.1 | CC(=O)O [acetic acid]
2 | 2.39 ± 0.1 | NC=O [formamide]
3 | -20.61 ± 0.1 | CCC(=O)O [propanoic acid]
